Measured values reported in patent US5521184A, “Pyrimidine derivatives and processes for the preparation thereof” (Ciba-Geigy Corporation, priority 1992, dated 1996).

Experiments:
[1] = test system: human T24 bladder carcinoma; assay: tumour-inhibiting activity in nude mice with transplanted human T24 bladder carcinoma; format: in vivo, female Balb/c nude mice; settings: perorally or intraperitoneally once daily for 15 days
Method: The tumour-inhibiting activity is determined using female Balb/c nude mice in which human T24 bladder carcinoma has been transplanted. On day 0, a c. 25 mg piece of solid tumour is transplanted subcutaneously under peroral "forene" narcosis on the left flank and the small incision wound is closed with a suture clip. On day 6 after the tumour transplantation, the mice are randomised in groups of 6 animals and treatment is commenced. The treatment is carded out for 15 days by administering a compound of formula I, e.g. N-[3-(1,1,2,2-Tetrafluoroethoxy)phenyl]-4-(4-pyridyl)-2-pyrimidine-amine, in dimethyl sulfoxide/Tween 80/sodium chloride solution in the different doses perorally or intraperitoneally once daily. The tumours are measured twice weekly with a sliding caliper and the tumour volume determined.

[2] = test system: p34^cdc2 /cyclin B^cdc13 kinase; assay: p34cdc2/cyclin Bcdc13 kinase assay with histone H1 as substrate; format: biochemical, starfish
Method: Starfish oocytes are induced to enter M phase with 10 μM 1-methyladenine, frozen in liquid nitrogen and stored at -80° C. When required the oocytes are homogenized and centrifuged as described by D. Arion et al., Cell 55, 371-378 (1988) and V. Rialet und L. Meijer, Anticancer Res. 11, 1581-1590 (1991). For purification of p34^cdc2 /cyclin B^cdc13 kinase, the supernatant of oocytes is added to p9^CKShs -sepharose beads prepared from recombinant human p9^CKShsas described by L. Azzi et al., Eur. J. Biochem. 203, 353-360 (1992). After 30 minutes at 4° C. under constant rotation, the beads are extensively washed and active p34^cdc2 /cyclin B^cdc13 kinase is eluted with free p9^CKShs (3 mg/ml). The eluted kinase is assayed using histone H1 as a substrate as described by L. Meijer et al., EMBO J. 8, 2275-2282 (1989) und EMBO J. 10, 1545-1554 (1991). The reaction mixture contains 10 μl p34^cdc2 /cyclin B^cdc13 kinase, 5 μl histone H1, type III-S (5 mg/ml) and 10 μl buffer C. The reaction is started by addition of 5 μl [γ-^32 P]ATP (75 μM, 8800 cpm/pmole) and incubated for 10 minutes at 30° C. The assay is terminated by transferring 25 μl on pieces of Whatman P81 phosphocellulose paper. After 20 seconds the papers are washed 6 times with each 10 ml of 1% phosphoric acid for 5 minutes, dried and counted in a scintillation counter.

[3] = biological target: EGF-receptor-specific protein tyrosine kinase (EGF-R-PTK) (Homo sapiens, UniProt P00533); assay: inhibition of the EGF-receptor-specific protein tyrosine kinase (EGF-R-PTK); format: biochemical
Excerpt: J. Biochem. 207, 265-275 (1992).

EGF-receptor-specific protein tyrosine kinase (EGF-R-PTK), sequence (P00533 669-1210 limits assumed): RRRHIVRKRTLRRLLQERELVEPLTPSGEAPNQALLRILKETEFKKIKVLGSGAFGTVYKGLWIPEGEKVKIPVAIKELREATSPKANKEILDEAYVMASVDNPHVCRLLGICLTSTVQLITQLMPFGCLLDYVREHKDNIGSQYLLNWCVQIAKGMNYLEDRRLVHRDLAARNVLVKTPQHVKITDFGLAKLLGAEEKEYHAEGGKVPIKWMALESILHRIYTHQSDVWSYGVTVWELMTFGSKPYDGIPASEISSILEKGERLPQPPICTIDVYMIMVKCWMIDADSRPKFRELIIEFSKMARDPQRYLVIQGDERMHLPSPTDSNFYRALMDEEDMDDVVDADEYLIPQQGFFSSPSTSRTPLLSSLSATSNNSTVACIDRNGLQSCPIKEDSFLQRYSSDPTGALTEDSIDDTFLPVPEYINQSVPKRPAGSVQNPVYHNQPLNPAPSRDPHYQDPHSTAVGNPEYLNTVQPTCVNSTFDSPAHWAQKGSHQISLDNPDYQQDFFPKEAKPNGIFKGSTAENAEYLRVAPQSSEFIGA

Structure (SMILES) | average tumour volume compared with the untreated controls [1] | inhibition of p34cdc2/cyclin Bcdc13 kinase [2] | IC50 ([2]; histone H1 substrate) | inhibition of the tyrosine kinase activity of the receptor for EGF [3]
FC(F)C(F)(F)Oc1cccc(Nc2nccc(-c3ccncc3)n2)c1 [Example 32, N-[3-(1,1,2,2-tetrafluoroethoxy)phenyl]-4-(4-pyridyl)-2-pyrimidine-amine] | marked reduction in the average tumour volume | inhibit | 80 nM | –
FC(F)C(F)(F)Oc1cccc(Nc2nccc(-c3c[nH]c4ccccc34)n2)c1 [Example 33, N-[3-(1,1,2,2-tetrafluoroethoxy)phenyl]-4-(3-indolyl)-2-pyrimidine-amine] | – | – | – | inhibit the tyrosine kinase activity
